US12396949B2, “Technology for improving properties of lipid nanoparticles using lipids in which cis-unsaturated bonds are substituted with a silicon atom” (The Regents of the University of California, priority 2022, dated 2025)
Values joined by “and” are separate entries in the source; they are usually repeats but may differ in a detail not shown here. Equal entries are not always repeated.

Tests used:
Type in all cases: physicochemical
[1] = Average zeta potential of liposomes made from cationic silyl lipids (Tables 1A, 1B)
Source text: (§1) For colloidal dispersions, zeta potential is a useful measurement of the difference in electrokinetic potential between the dispersion medium and the stationary layer of fluid attached to the dispersed particle. The magnitude of the zeta potential indicates the degree of electrostatic repulsion between adjacent, similarly charged particles in a dispersion. A high zeta potential is an indicator of stability (resistance to aggregation). Both zeta potential and size can be determined using a zeta Potential Analyzer. Clogston J D et al., Methods Mol Biol. 2011; 697:63-70.
(§2) FIGS. 5A to 5C and TABLE 1A provide an illustration of such empirical determination: the effect of the length of the lipid tail, the end group, and the positioning of the silyl group. In this illustration, other properties of the lipid structure and liposome composition were kept constant. The liposome formulations just contained the cationic silyl lipids indicated, and Milli Q™ purified water.
(§3) FIGS. 7A to 7C and TABLE 1B provide another illustration of how structure of the silyl lipid can affect properties of nanoparticles.
(§4) Structural features such as tail length, positioning of the silicon group (n1, n2), and branching (as in 8,Si, (8)3-DOTMA) can influence liposome properties.

[2] = Average size of liposomes made from cationic silyl lipids (Tables 1A, 1B); conditions: for Avg size: Table 1B, sila-DOTMA analog liposomes; for Avg. Size: Table 1A, liposome formulations of the cationic silyl lipid only in Milli Q purified water
Source text: as §1, §2, §3, §4

RNA standard = assay: RNA encapsulation efficiency, Quant-It RiboGreen fluorescence assay; conditions: for RNA EE (RNA encapsulation efficiency): RNA-lipid complex 10:1 wt/wt lipid/RNA, 15 min room temperature, three aliquots; for RNA EE compared with DOTAP: comparison in words
Procedure: (§5) FIGS. 8A, 8B, and 8C show the measured size, zeta potential, and RNA encapsulation efficiency (EE) of lipid nanoparticles (LNPs) containing silyl-DOTAP lipids, compared with traditional DOTAP-derived LNPs. The data in FIG. 8A were obtained from three liposome solutions, whereupon the average size was determined using dynamic light scattering (DLS). The data in FIG. 8B were obtained from three liposome solutions, whereupon the average zeta potential was determined using dynamic light scattering (DLS). The data in FIG. 8C represent RNA encapsulation efficiency, determined for each lipid using the Quant-It RiboGreen fluorescence assay.
The data in FIG. 8C represent RNA encapsulation efficiency. One RNA-lipid complex solution (10:1 wt/wt lipid/RNA) was formed for each lipid by incubating the silyl liposomes with RNA standard at room temperature for fifteen minutes. The average RNA EE of three aliquots of RNA-lipid complex solution was determined for each lipid using the Quant-It RiboGreen fluorescence assay.
(§6) The values shown are the average standard deviation size by intensity, zeta potential, and RNA EE shown in FIGS. 8A to 8C for each lipid. Footnotes: a: One trial corresponds to one liposome solution (1 mg/ml). […] DOTAP is 198 nm and 8SiPh is 183±65 nm when excluding this large aggregate/outlier.

[3] = Liposome size by intensity, dynamic light scattering (silyl-DOTAP liposomes); conditions: for average LNP size compared with DOTAP: comparison in words; for size (size by intensity, average ± standard deviation): three liposome solutions, thin film hydration/bath sonication, all trials; for size (size by intensity, average ± standard deviation) / size by intensity when excluding large aggregate/outlier: 1 mg/mL in Milli Q water; for size (size by intensity, average ± standard deviation) / size by intensity when excluding large aggregate/outlier / large aggregate/outlier in size by intensity distribution of one trial: DLS; for size by intensity when excluding large aggregate/outlier: outlier trial peak excluded; for large aggregate/outlier in size by intensity distribution of one trial: one of three trials
Procedure: as §5
(§7) FIGS. 8A, 8B, and 8C provide an analysis of size, zeta potential, and RNA encapsulation efficiency (EE) of lipid nanoparticles (LNPs) composed of silyl-DOTAP lipids, compared with traditional DOTAP-derived LNPs. The data in FIG. 8A were obtained from three liposome solutions (1 mg/mL in Milli Q water) for each lipid, which were formed via thin film hydration/bath sonication and the average size by intensity was determined using dynamic light scattering (DLS). The data in FIG. 8B were obtained from three liposome solutions (1 mg/mL in Milli Q water) for each lipid, which were formed via thin film hydration/bath sonication and the average zeta potential was determined using dynamic light scattering (DLS).
as §6

[4] = Liposome zeta potential, dynamic light scattering (silyl-DOTAP liposomes); conditions: three liposome solutions, 1 mg/mL in Milli Q water, DLS
Procedure: as §5, §7, §6

[5] = Table 1B, sila-DOTMA analog liposomes, two values given
[6] = Table 1A, liposome formulations of the cationic silyl lipid only in Milli Q purified water

Compound | RNA EE (RNA encapsulation efficiency) (RNA standard) | size (size by intensity, average ± standard deviation) [3] | zeta (average zeta potential ± standard deviation) [4] | also measured
CCCCCC[Si](C)(C)CCCCCCCCCCOCC(C[N+](C)(C)C)OCCCCCCCCCC[Si](C)(C)CCCCCC (stereo not drawn) [10, Si, 6-DOTMA] | – | – | – | Avg. zeta Potential [1, 5]: 52 mV; Avg size [2]: 65 nm
C[N+](C)(C)CC(COC(=O)CCCCC[Si](C)(C)c1ccccc1)OC(=O)CCCCC[Si](C)(C)c1ccccc1 (stereo not drawn) [6SiPh] | 76 ± 1% | 448 ± 110 nm | 81 ± 3 mV | RNA EE compared with DOTAP (RNA standard): higher EE than DOTAP; average LNP size compared with DOTAP [3]: noticeably larger average sizes than DOTAP
CCCCCCCC[Si](C)(C)CCCCC(=O)OCC(C[N+](C)(C)C)OC(=O)CCCC[Si](C)(C)CCCCCCCC (stereo not drawn) [QP5Si8] | – | – | – | Avg. zeta Potential [1, 6]: 69 mV and 112 mV; Avg. Size [2]: 38 nm
CCCC[Si](C)(C)CCCCC(=O)OCC(C[N+](C)(C)C)OC(=O)CCCC[Si](C)(C)CCCC (stereo not drawn) [QP5Si4] | – | – | – | Avg. zeta Potential [1, 6]: 65 mV; Avg. Size [2]: 21 nm
C[N+](C)(C)CC(COC(=O)CCCCCCC[Si](C)(C)C1CCCCC1)OC(=O)CCCCCCC[Si](C)(C)C1CCCCC1 (stereo not drawn) [8SiCy] | 49 ± 4% | 199 ± 30 nm | 70 ± 3 mV | –
CCCCCCCC[Si](CCCCCCCC)(CCCCCCCC)CCCCCCCCOCC(C[N+](C)(C)C)OCCCCCCCC[Si](CCCCCCCC)(CCCCCCCC)CCCCCCCC (stereo not drawn) [8, Si, (8)3-DOTMA] | – | – | – | Avg. zeta Potential [1, 5]: 64 mV; Avg size [2]: 184 nm
CCCCCCCC[Si](C)(C)CCCCCCCCOCC(C[N+](C)(C)C)OCCCCCCCC[Si](C)(C)CCCCCCCC (stereo not drawn) [8, Si, 8-DOTMA] | – | – | – | Avg. zeta Potential [1, 5]: 56 mV and 74 mV; Avg size [2]: 206 nm
CCCC[Si](C)(C)CCCCCCCC(=O)OCC(C[N+](C)(C)C)OC(=O)CCCCCCC[Si](C)(C)CCCC (stereo not drawn) [8Si4] | 44 ± 7% | 198 nm | 70 ± 2 mV | –
CCCCCC[Si](C)(C)CCCCCCCC(=O)OCC(C[N+](C)(C)C)OC(=O)CCCCCCC[Si](C)(C)CCCCCC (stereo not drawn) [8Si6] | 48 ± 1% | 164 ± 36 nm | 84 ± 5 mV | –
C[N+](C)(C)CC(COC(=O)CCCCCCC[Si](C)(C)CCCc1ccccc1)OC(=O)CCCCCCC[Si](C)(C)CCCc1ccccc1 (stereo not drawn) [8Si3Ph] | 53 ± 8% | 106 ± 35 nm | 91 ± 6 mV | –
CCCCCCCC/C=C\CCCCCCCC(=O)OCC(C[N+](C)(C)C)OC(=O)CCCCCCC/C=C\CCCCCCCC.[Cl-] (stereo not drawn) [DOTAP, N-(1-(2,3-dioleoyloxy)propyl)-N,N,N-trimethylammonium chloride, reference compound] | 65 ± 2% | 314 ± 201 nm | 34 ± 5 mV | size by intensity when excluding large aggregate/outlier [3]: 198 nm; large aggregate/outlier in size by intensity distribution of one trial [3]: 838.3 nm
C[N+](C)(C)CC(COC(=O)CCCC[Si](C)(C)CCCc1ccccc1)OC(=O)CCCC[Si](C)(C)CCCc1ccccc1 (stereo not drawn) [5Si3Ph] | 55 ± 3% | 208 ± 19 nm | 78 ± 3 mV | –
C[N+](C)(C)CC(COC(=O)CCCCC[Si](C)(C)C1CCCCC1)OC(=O)CCCCC[Si](C)(C)C1CCCCC1 (stereo not drawn) [6SiCy] | 23 ± 0.2% | 188 ± 16 nm | 77 ± 5 mV | –
C[N+](C)(C)CC(COC(=O)CCCCCCC[Si](C)(C)CCc1ccccc1)OC(=O)CCCCCCC[Si](C)(C)CCc1ccccc1 (stereo not drawn) [8Si2Ph] | 56 ± 10% | 275 ± 82 nm | 61 ± 12 mV | –
CCCCCCCCC[Si](C)(C)CCCCCCC(=O)OCC(C[N+](C)(C)C)OC(=O)CCCCCC[Si](C)(C)CCCCCCCCC (stereo not drawn) [7Si9] | 59 ± 1% | 221 ± 40 nm | 73 ± 4 mV | –
CCCCCCCC[Si](C)(C)CCCCCCCC(=O)OCC(C[N+](C)(C)C)OC(=O)CCCCCCC[Si](C)(C)CCCCCCCC (stereo not drawn) [8Si8] | 50 ± 7% | 221 ± 40 nm | 73 ± 15 mV | RNA EE compared with DOTAP (RNA standard): comparable RNA EEs to DOTAP
CCCCCCCC[Si](C)(C)CCCCC(=O)OCC(C[N+](C)(C)C)OC(=O)CCCC[Si](C)(C)CCCCCCCC (stereo not drawn) [5Si8] | 74 ± 6% | 171 ± 26 nm | 63 ± 14 mV | RNA EE compared with DOTAP (RNA standard): higher EE than DOTAP
CCCCCCCCCCC[Si](C)(C)CCCCC(=O)OCC(C[N+](C)(C)C)OC(=O)CCCC[Si](C)(C)CCCCCCCCCCC (stereo not drawn) [5Si11] | – | 225 ± 24 nm | 0 mV and 0 ± 0.05 mV | RNA EE compared with DOTAP (RNA standard): comparable RNA EEs to DOTAP
C[N+](C)(C)CC(COC(=O)CCCC[Si](C)(C)C1CCCCC1)OC(=O)CCCC[Si](C)(C)C1CCCCC1 (stereo not drawn) [5SiCy] | 85 ± 4% | 169 ± 1 nm | 88 ± 5 mV | RNA EE compared with DOTAP (RNA standard): higher EE than DOTAP
CCCC[Si](C)(C)CCCCCC(=O)OCC(C[N+](C)(C)C)OC(=O)CCCCC[Si](C)(C)CCCC (stereo not drawn) [6Si4] | 41 ± 6% | 372 ± 93 nm | 91 ± 9 mV | average LNP size compared with DOTAP [3]: noticeably larger average sizes than DOTAP
C[N+](C)(C)CC(COC(=O)CCCC[Si](C)(C)c1ccccc1)OC(=O)CCCC[Si](C)(C)c1ccccc1 (stereo not drawn) [5SiPh] | 88 ± 9% | 226 ± 75 nm | 77 ± 6 mV | RNA EE compared with DOTAP (RNA standard): higher EE than DOTAP
C[N+](C)(C)CC(COC(=O)CCCC[Si](C)(C)CCc1ccccc1)OC(=O)CCCC[Si](C)(C)CCc1ccccc1 (stereo not drawn) [5Si2Ph] | 55 ± 4% | 198 nm | 76 ± 2 mV | –
C[N+](C)(C)CC(COC(=O)CCCCCCC[Si](C)(C)c1ccccc1)OC(=O)CCCCCCC[Si](C)(C)c1ccccc1 (stereo not drawn) [8SiPh] | 36 ± 5% | 397 ± 322 nm | 75 ± 6 mV | size by intensity when excluding large aggregate/outlier [3]: 183±65 nm; large aggregate/outlier in size by intensity distribution of one trial [3]: 1406 nm
